Test results taken from US20040077563A1, “Methods of drug delivery to hepatocytes and treatment of flaviviridae infections” (priority 2003, published 2004).

Experiments:
[1] = test system: Hep3B, HepG2 & Huh7 cell lines; assay: Uptake of [3H]-labeled nucleosides by different human liver cell lines; format: cell-based; details: for nucleoside uptake into hepatocytes (radioactivity in the cell lysate): Hep3B, HepG2, Huh7, 20 μCi/ml [3H]-nucleoside plus 10 μM cold nucleoside, 4 hr at 37° C, FIG. 1
Method: In order to determine whether Ribavirin and Viramidine™ use a similar mode of entry in human hepatocytes, the inventors performed several experiments. First, various strains of hepatocytes (Hep3B, HepG2, and Huh7) were incubated with various nucleotide analogs (e.g., Ribavirin, Levovirin (the L-isomer of Ribavirin), and Viramidine™), and the result of the nucleoside uptake experiments are illustrated in FIG. 1.
Hep3B, HepG2 & Huh7 cell lines were used at a concentration of 50,000 cells/well in a 24-wells plate, and incubated with [^3H]-labeled Ribavirin, Levovirin™, and Viramidine™ (20 μCi/ml) plus 10 μM cold nucleoside for 4 hr at 37° C. The cells were washed with PBS and lysed, and the radioactivity in the cell lysate (i.e.the amount of labeled nucleoside taken up by the cells) was determined in a scintillation counter.

[2] = test system: erythrocytes; assay: Uptake into erythrocytes; format: cell-based; details: data not shown
Description: Thus, it should be appreciated that toxicity of a nucleoside or nucleotide compound can be reduced by modifying the compound to include a carboxamidine moiety or modified carboxamidine moiety as described above, wherein target cells for modified compounds include a transporter system, which non-target cells lack. […] It is contemplated that this difference in uptake is attributable to the lack of a Viramidine™ uptake and/or transporter system.

[3] = test system: HepG2 cells; assay: Nucleoside competition assay; format: cell-based, human; details: cold competitor 0, 100 μM, 500 μM, 2 mM, 2 hrs at 37° C
Method: To address this question, the inventors performed uptake competition experiments in which radiolabeled Ribavirin or Viramidine™ competed for uptake with unlabeled Viramidine™ or Ribavirin, respectively.
50,000 HepG2 cells/well were placed in a 24-wells plate and incubated with [3H]-labeled nucleoside (20 μCi/ml). Competition was performed with increasing concentrations of cold (0, 100 μM, 500 μM, and 2 mM) competitor nucleoside. Incubation time was 2 hrs at 37° C. The cells were then washed with PBS and lysed. The radioactivity in the cell lysate (i.e. the amount of labeled nucleoside taken up by the cells) was determined in a scintillation counter.

[4] = test system: deaminase/deamidase activity in hepatocytes; assay: Conversion of carboxamidine to carboxamide in the liver; format: in vitro ADME; details: unpublished results
Description: Therefore, it is contemplated that by including a carboxamidine group to a molecule and exploiting the relatively high deaminase/deamidase acitivity of hepatocytes, molecules may be specifically targeted to the liver. With respect to contemplated molecules having a —C(NR1)(NR2R3) it should be appreciated that various deaminase/deamidase acitivities of hepatocytes are sufficiently high to convert such compounds from a prodrug form into an active drug form (e.g., drug activity is increased when carboxamide group is present).

[5] = test system: erythrocytes; details: stated as known for Ribavirin; cited from earlier work
[6] = Water solubility; format: physicochemical
Description: It is contemplated that Viramidine™*HCl (in either D- or L-configuration) will be administered in any appropriate pharmaceutical formulation, and under any appropriate protocol. Thus, administration may take place orally, parenterally (including subcutaneous injections, intravenous, intramuscularly, by intrasternal injection or infusion techniques), by inhalation spray, or rectally, topically and so forth, and in dosage unit formulations containing conventional non-toxic pharmaceutically acceptable carriers, adjuvants and vehicles. By way of example, it is contemplated that Viramidine™*HCl can be formulated in admixture with a pharmaceutically acceptable carrier. For example, Viramidine™*HCl can be administered orally as pharmacologically acceptable salts. […] Conventional buffers such as phosphates, bicarbonates or citrates can be used for this purpose. Of course, one of ordinary skill in the art may modify the formulations within the teachings of the specification to provide numerous formulations for a particular route of administration without rendering Viramidine™*HCl unstable or compromising their therapeutic activity. In particular, the modification of Viramidine™*HCl to render it more soluble in water or another vehicle, for example, may be easily accomplished by minor modifications (salt formulation, esterification, etc.) that are well within the ordinary skill in the art. […]

[7] = test system: flaviviridae; assay: Inhibition of growth of flaviviridae in a cell containing medium; format: cell-based; details: added to a cell-containing medium; data not shown
Description: The family of flaviviridae has recently gained special attention due to several occurrences of West Nile Virus encephalitis in the eastern part of the USA, resulting in at least 7 reported deaths and at least 62 cases of severe disease. Moreover, hepatitis C-like viruses (and the HCV virus) also belong to the family of flaviviridae, further adding to the significance of flaviviridae with respect to public and private health. While not wishing to be bound by a particular theory or hypothesis, it is contemplated that increased transport of Viramidine™*HCl is particularly beneficial for treatment of flaviridae-virus infections.

Structure (SMILES): N=C(N)c1ncn([C@@H]2O[C@H](CO)[C@@H](O)[C@H]2O)n1 [Viramidine™, 1-beta-D-ribofuranosyl-1,2,4-triazole-3-carboxamidine]
- nucleoside uptake into hepatocytes (radioactivity in the cell lysate) [1]: taken up to a significantly higher degree in all three cell lines
- rate of uptake into, and overall concentration in, hepatocytes as compared to Ribavirin ([1]; hepatocytes): significantly higher
- uptake into erythrocytes [2]: not taken up into erythrocytes
- competition of [3H]-Ribavirin uptake by unlabeled competitor ([3]; FIG. 2): at least partial competition
- conversion in the liver [4]: converted in the liver to Ribavirin

Structure (SMILES): NC(=O)c1ncn([C@@H]2O[C@H](CO)[C@@H](O)[C@H]2O)n1 [Ribavirin, 1-beta-D-ribofuranosyl-1,2,4-triazole-3-carboxamide, reference compound]
- nucleoside uptake into hepatocytes (radioactivity in the cell lysate) [1]: more efficiently taken up over the L-isomer of Ribavirin
- competition of [3H]-Viramidine uptake by unlabeled competitor ([3]; FIG. 3): at least partial competition
- uptake into erythrocytes (background statement) [5]: readily taken up by erythrocytes

Structure (SMILES): NC(=O)c1ncn([C@H]2O[C@@H](CO)[C@H](O)[C@@H]2O)n1 [Levovirin, reference compound]
- nucleoside uptake into hepatocytes (radioactivity in the cell lysate) [1]: taken up into all of the tested hepatocytes

Structure (SMILES): Cl.N=C(N)c1ncn([C@@H]2O[C@H](CO)[C@@H](O)[C@H]2O)n1 [Viramidine™*HCl, 1-beta-D-ribofuranosyl-1,2,4-triazole-3-carboxamidine*HCl]
- water solubility [6]: mostly water soluble
- inhibition of growth of flaviviridae [7]: can be inhibited
